PubChem BioAssay (NCI)
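Grown in 96-well plates, cells were treated for 48 hours with each compound at five concentrations. Insufficient inhibition: endpoint recorded as highest concentration tested. The concentration for full growth arrest is given as TGI.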

Experiments:
Test in all cases: inhibition of tumour cell growth, NCI panel, 48 h
M19-MEL melanoma = tested on: M19-MEL melanoma
NCI-H226 lung = tested on: NCI-H226 lung
SNB-78 CNS = tested on: SNB-78 CNS
KM12 colon = tested on: KM12 colon
RXF-631 renal = tested on: RXF-631 renal
DMS 114 small cell lung = tested on: DMS 114 small cell lung
XF 498 CNS = tested on: XF 498 CNS
DLD-1 colon = tested on: DLD-1 colon
LXFL 529 NSCLC = tested on: LXFL 529 NSCLC
KM20L2 colon = tested on: KM20L2 colon
DMS 273 small cell lung = tested on: DMS 273 small cell lung
A498 renal = tested on: A498 renal
HOP-18 NSCLC = tested on: HOP-18 NSCLC
SK-MEL-2 melanoma = tested on: SK-MEL-2 melanoma

Row | SMILES | TGI (M19-MEL melanoma) | TGI (NCI-H226 lung) | TGI (SNB-78 CNS) | TGI (KM12 colon) | TGI (RXF-631 renal) | TGI (DMS 114 small cell lung) | TGI (XF 498 CNS) | TGI (DLD-1 colon) | TGI (LXFL 529 NSCLC) | TGI (KM20L2 colon) | TGI (DMS 273 small cell lung) | TGI (A498 renal) | TGI (HOP-18 NSCLC) | TGI (SK-MEL-2 melanoma)
1 | CC(=O)c1c(O)ccc2c1CC(CC=O)O2 (stereo not given) | > 100 µM | > 100 µM | > 100 µM | > 100 µM | > 100 µM | 55.1 µM | > 100 µM | > 100 µM | > 100 µM | > 100 µM |  |  |  | 
2 | CN(C)CCCSc1c2ccccc2nc2cc(NCC(=O)Nc3ccccc3-c3ccccc3NC(=O)CNc3ccc4c(SCCCN(C)C)c5ccccc5nc4c3)ccc12 | > 100 µM | > 100 µM | > 100 µM | > 100 µM |  | > 100 µM | > 100 µM | > 100 µM | > 100 µM | > 100 µM | > 100 µM | > 100 µM | > 100 µM | > 100 µM
3 | COc1ccc(-c2onc(-c3c(C)cc(C)cc3C)c2C2=NCCCN2)cc1 | > 100 µM | > 100 µM | > 100 µM | > 100 µM | > 100 µM |  | > 100 µM | > 100 µM | > 100 µM | > 100 µM |  |  | > 100 µM | 97.7 µM
4 | COc1cccc(/C(C=O)=C(\Cl)c2ccc(OC)c(OC)c2)c1 | 23.4 µM | 28.1 µM | 37.7 µM | 29.1 µM |  | 30.5 µM | 31.1 µM | 25.5 µM | 24.4 µM | 44.1 µM | 27.3 µM |  | 27.8 µM | 42.8 µM
5 | NC(=O)c1csc(CCCCCCc2nc(C(N)=O)cs2)n1 | 49.3 µM | > 100 µM | > 100 µM | > 100 µM | > 100 µM | > 100 µM |  | > 100 µM | > 100 µM | > 100 µM | > 100 µM | > 100 µM | > 100 µM | > 100 µM
6 | CC(=O)OC1OC2C(NC(=O)OC(C)(C)C)C1CC2(OCc1ccccc1)OCc1ccccc1 (stereo not given) | > 74.1 µM | 56.5 µM | > 100 µM | 71.5 µM | > 100 µM | 58 µM | 41.9 µM |  | > 100 µM | 39.3 µM | 69.5 µM | > 82.9 µM | 46.5 µM | 38.9 µM
7 | O=C1C(Cl)C(c2ccc(Cl)cc2)N1n1cnc2ccccc2c1=O (stereo not given) | > 100 µM | > 100 µM | > 100 µM | > 100 µM |  | > 100 µM | > 100 µM | > 100 µM | > 100 µM | > 100 µM | > 100 µM |  | > 100 µM | > 100 µM
8 | Cc1nccc2c1cnc1ccnn12 | > 100 µM | > 100 µM | > 100 µM | > 100 µM | > 100 µM | > 100 µM |  | > 100 µM | > 100 µM | > 100 µM | > 100 µM | > 100 µM |  | > 100 µM
9 | O=C(O)c1cc(-c2ccccc2O)nc2ccccc12 | > 100 µM |  | > 100 µM | > 100 µM |  | > 100 µM | > 100 µM | > 100 µM | > 100 µM | > 100 µM |  | > 100 µM | > 100 µM | > 100 µM
10 | NC12CC3CC(C1)CC(Cl)(C3)C2 | > 100 µM |  | > 100 µM | > 100 µM | > 100 µM | > 100 µM | > 100 µM | > 100 µM | > 100 µM | > 100 µM | > 100 µM | > 100 µM |  | > 100 µM
11 | CC1=Nc2c([nH]c(=S)[nH]c2=O)NC(c2ccc(Cl)c(Cl)c2)C1 (stereo not given) | 34.2 µM | 48.8 µM | > 100 µM | 32.3 µM |  | > 81 µM | > 100 µM | > 56.7 µM | 37.8 µM | > 62.9 µM | > 72.9 µM | 33.3 µM | > 100 µM | > 100 µM
12 | C/C(=N\NS(=O)(=O)c1ccc(C)cc1)C(CN(C)C)C(c1ccccc1)c1c(O)c2ccccc2oc1=O (stereo not given) | > 100 µM | > 100 µM | > 100 µM | > 100 µM | > 100 µM |  | > 100 µM | > 100 µM | > 100 µM | > 100 µM |  | > 100 µM | > 100 µM | > 100 µM
13 | NC1=NC2(O)c3ccccc3C(=O)C2(O)N1 (stereo not given) |  | > 100 µM | > 100 µM | > 100 µM | > 100 µM | > 100 µM |  | > 100 µM | > 100 µM | > 100 µM | > 100 µM | > 100 µM | > 100 µM | > 100 µM
14 | C=C1CC2(OC1=O)c1ccccc1C=Cc1ccccc12 | 11.8 µM | 11.2 µM | 9.3 µM | 12.3 µM | 33.1 µM | 21 µM | 26.5 µM | 3.76 µM | 7.14 µM | 20.5 µM | 28.2 µM | 25 µM | 27.4 µM | 16.5 µM
